pEC50, pKd: −log10 of the molar value. Like-named read-outs stand apart in the source and are kept apart here.

What is called pEC50 is −log10 of the EC50, conventionally taken in molar units. A lower pEC50 goes with a large EC50. The pKd is −log10 of the Kd, conventionally taken in molar units.

In experiment [1] the test system is EMCV. Description: microbe, parasite or virus in culture. Type of experiment: cell-based, encephalomyocarditis virus (EMCV). The note with it: Cardiovirus A, A549.
Experiment [2] relates to HSV-1. Description: microbe, parasite or virus in culture. The experiment is classed as cell-based, herpes simplex virus 1 (HSV-1). The note with it: Human alphaherpesvirus 1, A549.
The subject of experiment [3] is HSV-1. Description: microbe, parasite or virus in culture. Type of experiment: cell-based, herpes simplex virus 1 (HSV-1). The note with it: Human alphaherpesvirus 1, L929.
In experiment [4] the test system is H1N1. Description: Dose-response of infectivity, H1N1 in L929 cells. The experiment is classed as cell-based. The conditions noted are these: Influenza A virus.
The subject of experiment [5] is EMCV. Description: microbe, parasite or virus in culture. The experiment is classed as cell-based, encephalomyocarditis virus (EMCV). The note with it: Cardiovirus A, L929.
For another experiment, the system named is A549 cells. Description: Transcriptome analysis (RNA-seq, GO, GSEA) of compound-treated A549 cells.
Experiment [6] concerns VSV. Type of experiment: cell-based, vesicular stomatitis virus (VSV).
Experiment [7] deals with H1N1. Description: Dose-response of infectivity, H1N1 in A549 cells (viral mRNA by qRT-PCR). Type of experiment: cell-based. The conditions noted are these: Influenza A virus, H1N1, A549. For orientation: Real-time PCR tracks product formation cycle by cycle.
Experiment [8] concerns VSV. The experiment is classed as in vivo, C57/BL6J mice. The conditions noted are these: mice, VSV infection.
Experiment [9] concerns VSV. The experiment is classed as cell-based, vesicular stomatitis virus (VSV). This is another data set of the same source.
Experiment [10] relates to H1N1. Description: H1N1 mRNA in A549 cells pretreated with NPC1 inhibitors. Type of experiment: cell-based, influenza virus A (H1N1). The note with it: A549 cells pretreated before infection.
The subject of experiment [11] is VSV. The experiment is classed as cell-based, vesicular stomatitis virus (VSV). The note with it: A549 cells pretreated before infection.
Experiment [12] has as its system H1N1. Description: Antiviral effect in normal/serum-free medium during H1N1 infection of A549 cells. The experiment is classed as cell-based, influenza virus A (H1N1). The note with it: serum-free conditions.
The next experiment concerns the target T1, NPC1 (Homo sapiens, UniProt O15118).
T1 sequence (O15118 23-1278): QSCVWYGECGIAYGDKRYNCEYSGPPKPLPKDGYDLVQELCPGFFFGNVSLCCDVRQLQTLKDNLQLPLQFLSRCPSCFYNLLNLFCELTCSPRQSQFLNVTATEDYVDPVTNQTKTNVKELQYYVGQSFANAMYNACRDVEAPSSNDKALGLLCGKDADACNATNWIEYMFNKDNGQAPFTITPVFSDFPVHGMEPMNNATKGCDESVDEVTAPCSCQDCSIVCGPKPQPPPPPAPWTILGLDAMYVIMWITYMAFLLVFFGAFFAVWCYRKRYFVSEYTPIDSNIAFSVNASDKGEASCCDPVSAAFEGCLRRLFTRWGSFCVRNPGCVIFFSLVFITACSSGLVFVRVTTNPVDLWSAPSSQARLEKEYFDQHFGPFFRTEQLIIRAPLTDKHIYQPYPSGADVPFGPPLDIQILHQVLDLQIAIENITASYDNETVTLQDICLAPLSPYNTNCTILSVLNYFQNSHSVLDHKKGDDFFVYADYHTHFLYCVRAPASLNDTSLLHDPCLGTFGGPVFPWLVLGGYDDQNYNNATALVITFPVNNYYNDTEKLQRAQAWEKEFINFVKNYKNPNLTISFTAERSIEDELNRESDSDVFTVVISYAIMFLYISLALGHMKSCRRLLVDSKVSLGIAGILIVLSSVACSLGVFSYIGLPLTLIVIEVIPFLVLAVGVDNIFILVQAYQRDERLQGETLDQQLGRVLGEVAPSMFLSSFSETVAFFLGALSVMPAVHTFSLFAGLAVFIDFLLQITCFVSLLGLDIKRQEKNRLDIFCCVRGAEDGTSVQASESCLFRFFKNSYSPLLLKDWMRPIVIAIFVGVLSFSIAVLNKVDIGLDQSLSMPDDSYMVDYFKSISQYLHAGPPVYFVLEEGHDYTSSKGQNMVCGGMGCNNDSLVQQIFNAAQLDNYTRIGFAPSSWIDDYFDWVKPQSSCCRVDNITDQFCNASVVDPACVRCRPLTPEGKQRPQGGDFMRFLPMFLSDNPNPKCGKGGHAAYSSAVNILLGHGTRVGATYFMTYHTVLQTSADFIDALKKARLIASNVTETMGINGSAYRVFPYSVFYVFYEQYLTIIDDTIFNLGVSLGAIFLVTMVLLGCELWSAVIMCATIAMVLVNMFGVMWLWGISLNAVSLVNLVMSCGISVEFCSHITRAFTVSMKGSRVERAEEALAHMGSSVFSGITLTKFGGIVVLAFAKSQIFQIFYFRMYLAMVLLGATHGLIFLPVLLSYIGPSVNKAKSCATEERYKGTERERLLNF
The experiment is classed as binding. The note with it: […]; read-out: SPR KD.

For the compound `COc1cc2c3cc1Oc1c(OC)c(OC)cc4c1[C@@H](Cc1ccc(O)c(c1)Oc1ccc(cc1)C[C@@H]3N(C)CC2)N(C)CC4` [Bbm, berbamine], the negative logarithm of the EC50 (pEC50) in the experiment with EMCV [1] was 6.97; in the experiment on HSV-1 [2] it was 5.49; in the experiment on HSV-1 [3] it was 6.44; in the experiment on H1N1 [4] it was 5.58; in the experiment with EMCV [5], 5.82; in the experiment on H1N1 [7] it was 6.22. For the same compound, in the experiment on A549 cells (A549 cells, 10 µM, 24 h), the “GSEA NES, Response to virus” value is 1.34. Further, the “GSEA NES, Sterol metabolic process” value in the experiment with A549 cells (A549 cells, 10 µM, 24 h) worked out at 2.29. Moreover, the “VSV replication (VSV-G protein, immunoblotting)” value with VSV [6] was “inhibited”.

In the case of `COc1ccc2cc1Oc1ccc(cc1)C[C@H]1c3c(cc4c(c3Oc3cc5c(cc3OC)CCN(C)[C@@H]5C2)OCO4)CCN1C` [Cep, cepharanthine], the negative-log EC50 (pEC50) was 5.68 in the experiment with EMCV [1]; 5.50 in the experiment with HSV-1 [2]; 6.25 in the experiment with HSV-1 [3]; 5.42 with H1N1 [4]; 6.00 in the experiment with EMCV [5]; 6.96 in the experiment with H1N1 [7]. Moreover, the “GSEA NES, Innate immune response” value with A549 cells (A549 cells, 10 µM, 24 h) was 1.25. The “GSEA NES, Sterol metabolic process” value in the experiment with A549 cells (A549 cells, 10 µM, 24 h) is given as 2.19. Also, the “VSV replication (VSV-G protein, immunoblotting)” value in the experiment with VSV [6] is given as “inhibited”.

As to `Cc1ccc2c(=O)c3cccc(CC(=O)O)c3oc2c1C` [DMXAA], in the experiment with VSV [8], the “IL-6 level in serum” value is recorded as “markedly decreased” and the “TNF-α level in serum” value is recorded as “markedly decreased”.

Consider `COc1ccc2cc1Oc1ccc(cc1)C[C@H]1c3cc(c(OC)cc3CCN1C)Oc1c(O)c(OC)cc3c1[C@H](C2)N(C)CC3` [Fan, fangchinoline], for which the pEC50 in the experiment on EMCV [1] was 6.09; in the experiment with HSV-1 [2], 5.59; with HSV-1 [3] it was 5.63; in the experiment with H1N1 [4], 6.27; with EMCV [5] it was 5.87; in the experiment with H1N1 [7], 6.10. In addition, the “GSEA NES, Response to type I interferon” value in the experiment with A549 cells (A549 cells, 10 µM, 24 h) came to 2.27. The “GSEA NES, Sterol metabolic process” value in the experiment on A549 cells (A549 cells, 10 µM, 24 h) stood at 2.04. The “expression of antiviral immune-related genes” value in the experiment with A549 cells (WT A549 cells, compared among Tet, Fan, Cep, Bbm) is “higher expression”. Moreover, the “VSV replication (VSV-G protein, immunoblotting)” value with VSV [6] is “inhibited”.

For the compound `CCN(CC)CCO[C@H]1CC[C@@]2(C)C(=CC[C@@H]3[C@@H]2CC[C@]2(C)C(=O)CC[C@@H]32)C1` [U18666A], the “antiviral effect on VSV entry” value in the experiment with VSV [9] (MβCD pretreatment (cholesterol depleted)) is given as “abolished”; in the experiment on VSV [9] (cholesterol supplementation using MβCD-cholesterol), “restored inhibition”. In the experiment on H1N1 [10], the H1N1 replication result is recorded as “effectively blocked”. The VSV replication entry with VSV [11] is on record as “effectively blocked”. The “antiviral effect on H1N1 entry” value with H1N1 [12] was “diminished”.

Regarding `CN(C)CCCN1c2ccccc2CCc2ccccc21` [imipramine], the H1N1 replication result in the experiment with H1N1 [10] was “effectively blocked”. Also, the VSV replication entry in the experiment on VSV [11] was “effectively blocked”.

As to `CCC(C)n1ncn(-c2ccc(N3CCN(c4ccc(OCC5COC(Cn6cncn6)(c6ccc(Cl)cc6Cl)O5)cc4)CC3)cc2)c1=O` (stereo not drawn) [itraconazole], the H1N1 replication result in the experiment on H1N1 [10] is “effectively blocked”. The VSV replication entry in the experiment on VSV [11] is “effectively blocked”. Moreover, at NPC1, the negative logarithm of the Kd (pKd) was 5.06.

Consider `CC[C@@H]([C@H](C)O)n1ncn(-c2ccc(N3CCN(c4ccc(OC[C@@H]5CO[C@@](Cn6cncn6)(c6ccc(F)cc6F)C5)cc4)CC3)cc2)c1=O` [posaconazole], for which, in the experiment on H1N1 [10], the H1N1 replication entry is “effectively blocked”. For the same compound, the VSV replication result with VSV [11] is “effectively blocked”.

For the origin of these results see article PMC12416277, “Phytochemical alkaloids orchestrate immunometabolism against viral infections” (National Science Review, 2025).
